Here are results for two compounds from article PMC5274652, “Antagonizing Retinoic Acid Receptors Increases Myeloid Cell Production by Cultured Human Hematopoietic Stem Cells” (Archivum Immunologiae et Therapiae Experimentalis, 2016).

Assay [1] has as its system NB-4 cells. Kind of assay: Differentiation of NB-4 cells (CD11b/CD14 flow cytometry). The assay is classed as cell-based, human. The settings on record: NB-4 cells, 96 h. As to the method:
(§1) NB-4 and KG1 cells were obtained from the German Resource Center for Biological Material (DSMZ GmbH, Braunschweig, Germany). The cells were grown in RPMI-1640 medium supplemented with 10 % fetal bovine serum (FBS), 100 U/ml penicillin, and 100 µg/ml streptomycin (Sigma, St Louis, MO, USA). Cells were grown at 37 °C in 5 % CO2.
(§2) The expression of differentiation markers at the cell surface was determined by flow cytometry. Differentiation of NB-4 and KG1 cells was measured by staining using the monoclonal antibodies CD11b-FITC and CD14-PE and appropriately labeled isotype controls (all from ImmunoTools, Friesoythe, Germany). Differentiation of human CD34^+ve cells was measured by triple-color staining using various cocktails of phycoerythrin-, fluorescein isothyocyanate-, and PerCP-monoclonal antibodies (from Becton–Dickinson, San Jose, CA, USA). The markers used to identify cell populations were as follows: CD45^+ve leukocytes; CD34^+ve/CD133^+ve HSCs; CD33^+ve/CD13^+ve immature myeloid; CD117^+ve myeloblasts and promyelocytes; CD11b^+ve/CD15^+ve mature myeloid; CD11b^+ve/CD65^+ve neutrophils; CD11b^+ve/CD14^+ve monocytes; glycophorin^+ve A erythroid cells; CD61^+ve megakaryoblasts and platelets; CD2^+ve/CD5^+ve/CD7^+ve T cells and NK cells; CD56^+ve NK cells; CD19^+ve/CD20^+ve B cells; and CD10^+ve B lymphocyte progenitors; and present on mature neutrophils and DR^+ve progenitors and present on mature monocytes. The cells were stained with 1 µl of the fluorescently labeled antibody (or the appropriate control immunoglobulin) for 1 h on ice. Next, they were washed with ice-cold phosphate-buffered saline (PBS) and suspended in 0.5 ml PBS supplemented with 0.1 % bovine serum albumin (Sigma, St Louis, MO, USA) prior to analysis on FACS Calibur flow cytometer (Becton–Dickinson, San Jose, CA, USA). The acquisition parameters were set for an isotype control. Cells were analyzed using a FACSCalibur, and data analysis was performed using the CellQuest Pro software (Becton–Dickinson, San Jose, CA, USA).
(In general: A flow cytometer gives signals particle by particle.)

For assay [2], the target named is T1, RARα (Homo sapiens, UniProt P10276).
T1 sequence (P10276 183-417 limits assumed): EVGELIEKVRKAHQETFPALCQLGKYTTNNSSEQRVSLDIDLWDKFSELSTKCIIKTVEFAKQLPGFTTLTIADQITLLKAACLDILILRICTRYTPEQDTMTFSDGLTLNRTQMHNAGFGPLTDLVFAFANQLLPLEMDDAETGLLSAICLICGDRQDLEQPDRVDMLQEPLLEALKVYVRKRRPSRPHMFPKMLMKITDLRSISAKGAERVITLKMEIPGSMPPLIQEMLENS
From the text:
(§3) For transactivation studies, we used CV-1 kidney fibroblast cells and LNCaP prostate adenocarcinoma cells that can be readily and reproducibly transfected with plasmids and reporters. Transactivation assays using CV-1 cells were undertaken essentially as described previously (Nagpal et al. [1995]). Briefly, CV-1 cells were transiently transfected with a plasmid-containing ERE-tk-Luc promoter-reporter construct using Lipofectamine as described in the manufacturer’s protocol (Fisher Scientific, Loughborough, UK). ERE-tk-Luc transcript comprises a luciferase reporter under control of an estrogen receptor response element. The cells were also transiently transfected with expression vector encoding a fusion protein containing the ligand-binding domain of RARα, RARβ, or RARγ fused to an estrogen receptor DNA-binding domain. Twenty-four hours after transfection, the cells were treated with retinoids under test for 16 h in culture medium-containing 2.5 % charcoal-treated FBS and lysed for determination of luciferase and β-galactosidase activities. Luciferase activity was measured using the Dual-Luciferase Reporter 100 Assay System (Promega, Southampton, UK), and β-galactosidase activity was determined by colorimetric assay. The reporter activity was normalized against β-galactosidase activity. […]

In assay [3] the target is T2, RARβ (Homo sapiens, UniProt P10826).
T2 construct: expressed in transfected cells; host or cells: CV-1 kidney fibroblast cells
T2 sequence (P10826 183-417 limits assumed): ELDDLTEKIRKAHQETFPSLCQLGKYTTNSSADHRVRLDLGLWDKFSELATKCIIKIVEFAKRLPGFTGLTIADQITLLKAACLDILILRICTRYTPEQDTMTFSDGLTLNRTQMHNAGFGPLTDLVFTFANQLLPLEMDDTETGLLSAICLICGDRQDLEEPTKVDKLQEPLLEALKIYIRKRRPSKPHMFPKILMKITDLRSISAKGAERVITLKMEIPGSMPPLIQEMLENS
Kind of assay: Retinoid receptor transactivation assay in transfected CV-1 cells, RARβ. The assay is classed as cell-based.
Description: as §3

Assay [4] has as its target T3, RARγ (Homo sapiens, UniProt P13631).
T3 construct: expressed in transfected cells; host or cells: CV-1 kidney fibroblast cells
T3 sequence (P13631 185-419 limits assumed): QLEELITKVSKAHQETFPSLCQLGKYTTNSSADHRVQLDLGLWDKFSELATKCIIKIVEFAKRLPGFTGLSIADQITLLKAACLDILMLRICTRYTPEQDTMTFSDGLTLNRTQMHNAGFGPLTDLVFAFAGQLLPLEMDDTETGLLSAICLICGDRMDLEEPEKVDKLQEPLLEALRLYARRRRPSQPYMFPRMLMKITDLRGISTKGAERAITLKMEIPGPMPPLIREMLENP
Kind of assay: Retinoid receptor transactivation assay in transfected CV-1 cells, RARγ. The assay is classed as cell-based.
Description: as §3

Assay [5] concerns KG1 cells. Briefly: Differentiation of KG1 cells (CD11b/CD14 flow cytometry). The assay is classed as cell-based, human. The settings on record: KG1 cells, 1 μM combined with 10 nM 1,25D, 96 h. As to the method: as §1, §2
Assay [6] concerns zebra fish embryos. Also noted: method as in Wai et al. 2015. The following applies: 10 nM, ref Wai et al. 2015; cited from earlier work.

With `CC1=C(/C=C/C(C)=C/C=C/C(C)=C/C(=O)O)C(C)(C)CCC1` [ATRA, all-trans retinoic acid], the “CD11b+ve/CD14+ve cells (monocyte differentiation)” value in assay [1] (1 μM combined with 10 nM 1,25D) is listed as ~ 36%; in assay [1] (1 μM, alone), ~ 10%; in assay [5], 26%. The “concentration required to activate RARα (reporter assays)” value in assay [2] (discussion, order of magnitude) is listed as ~10^−8 M. Moreover, the “ATRA concentration at which maximal effect on RARα transactivation is observed” value in assay [2] (transfected CV-1 cells) is given as ~10^−7 M. Moreover, the “ATRA concentration of maximal activation, RARβ” value in assay [3] is listed as ~ 5 × 10^−9 M. For the same compound, in assay [4] (discussion, order of magnitude), the “concentration at which RARγ is activated (reporter assays)” value is on record as ~10^−10 M. In addition, the “ATRA concentration of maximal activation, RARγ” value in assay [4] (transfected CV-1 cells) is reported as ~ 5 × 10^−9 M.
`CC1(C)CCC(C)(C)c2cc(/C(=N\O)c3cc4cc(C(=O)O)ccc4[nH]3)ccc21` [AGN205327]: in assay [6], the “effect on stem cell populations and development” value is “Stem cell populations were maintained at the expense of the development of bones and neural ganglia”.
